In patent publication US20250154686A1, “COMPOUND LIBRARY” (CHUGAI SEIYAKU KABUSHIKI KAISHA, priority 2021, published 2025):

Biological target: T1, Bcl-2 protein (Recombinant Human Bcl-2 Protein) (Homo sapiens, UniProt P10415)
T1 construct: purchased Novus Biologicals NBP2-34889
Assay: AS-MS evaluation of binding of the Example 4 mixture library (1200 compounds/well) to Bcl-2, ASMS ratio (%)
Conditions: Example 4 mixture library
How it was run: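 Affinity-selection MS: after spin-column size exclusion and organic extraction, LC/MS signals give an ASMS ratio (%), referenced to protein-free samples with and without column treatment. Binding step combined 20 μM human Bcl-2 with the 1200-compound pool at 20 nM per compound, 1 h, 23° C., dark, pH 7.4 Tris-HCl/NaCl/Tween-20/DTT.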

[1] = 1200 compounds/well, Bcl-2 protein, replicate n = 2, value belongs to the MS peak assignable to the compound

T1 sequence (P10415 whole entry): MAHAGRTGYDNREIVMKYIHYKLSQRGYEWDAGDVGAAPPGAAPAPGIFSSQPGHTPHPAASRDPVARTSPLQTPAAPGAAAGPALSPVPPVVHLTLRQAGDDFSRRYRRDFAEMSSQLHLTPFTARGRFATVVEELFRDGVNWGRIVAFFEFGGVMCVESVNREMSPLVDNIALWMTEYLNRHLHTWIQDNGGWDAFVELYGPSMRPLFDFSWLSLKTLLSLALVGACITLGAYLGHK

SMILES	ASMS ratio (%) n = 1 (1200 compounds/well, Bcl-2 protein, replicate n = 1, value belongs to the MS peak assignable to the compound)	ASMS ratio (%) n = 2 [1]	ASMS ratio (%) n = 1 (AS-MS, Bcl-2, replicate n = 1)	ASMS ratio (%) n = 2 (AS-MS, Bcl-2, replicate n = 2)
CCOc1cncc(-c2cc(C(=O)N3CCN(c4ccc(C(=O)NS(=O)(=O)c5ccc(NCCSc6ccccc6)c([N+](=O)[O-])c5)cc4)CC3)cc(C(F)(F)F)c2)c1 [Compound B2Q040-01, 4-[4-[3-(5-Ethoxypyridin-3-yl)-5-(trifluoromethyl)benzoyl]piperazin-1-yl]-N-[3-nitro-4-(2-phenylsulfanylethylamino)phenyl]sulfonylbenzamide]	3.9%	1.5%		
CCOc1cccc(-c2cc(CN3CCN(c4ccc(C(=O)NS(=O)(=O)c5ccc(NCCSc6ccccc6)c([N+](=O)[O-])c5)nn4)CC3)cc(OC(F)(F)F)c2)c1 [Compound B2Q089-01, 6-[4-[[3-(3-Ethoxyphenyl)-5-(trifluoromethoxy)phenyl]methyl]piperazin-1-yl]-N-[3-nitro-4-(2-phenylsulfanylethylamino)phenyl]sulfonylpyridazine-3-carboxamide]		−15.0%		
CCOc1cncc(-c2csc(C(=O)N3CCN(c4ccc(C(=O)NS(=O)(=O)c5ccc(NCCSc6ccccc6)c(C(F)(F)F)c5)nn4)CC3)c2)c1 [Compound B2R002-01, 6-[4-[4-(5-Ethoxypyridin-3-yl)thiophene-2-carbonyl]piperazin-1-yl]-N-[4-(2-phenylsulfanylethylamino)-3-(trifluoromethyl)phenyl]sulfonylpyridazine-3-carboxamide]			0.0%	0.0%
CCOc1cccc(-c2ccc(C(=O)N3CCN(c4ccc(C(=O)NS(=O)(=O)c5ccc(NCCSc6ccccc6)c(C(F)(F)F)c5)nn4)CC3)cc2C)c1 [Compound B2R003-01, 6-[4-[4-(3-Ethoxyphenyl)-3-methylbenzoyl]piperazin-1-yl]-N-[4-(2-phenylsulfanylethylamino)-3-(trifluoromethyl)phenyl]sulfonylpyridazine-3-carboxamide]			21.6%	0.0%
CCOc1cncc(-c2ccc(C(=O)N3CCN(c4ccc(C(=O)NS(=O)(=O)c5ccc(NCCSc6ccccc6)c(C(F)(F)F)c5)nn4)CC3)cc2C)c1 [Compound B2R004-01, 6-[4-[4-(5-Ethoxypyridin-3-yl)-3-methylbenzoyl]piperazin-1-yl]-N-[4-(2-phenylsulfanylethylamino)-3-(trifluoromethyl)phenyl]sulfonylpyridazine-3-carboxamide]			0.0%	0.0%
CCOc1cccc(-c2ccc(C(=O)N3CCN(c4ccc(C(=O)NS(=O)(=O)c5ccc(NCCSc6ccccc6)c(C(F)(F)F)c5)nn4)CC3)cc2F)c1 [Compound B2R005-01, 6-[4-[4-(3-Ethoxyphenyl)-3-fluorobenzoyl]piperazin-1-yl]-N-[4-(2-phenylsulfanylethylamino)-3-(trifluoromethyl)phenyl]sulfonylpyridazine-3-carboxamide]			44.0%	39.5%
CCOc1cccc(C#Cc2ccccc2C(=O)N2CCN(c3ccc(C(=O)NS(=O)(=O)c4ccc(NCCSc5ccccc5)c(C(F)(F)F)c4)nn3)CC2)c1 [Compound B2R007-01, 6-[4-[2-[2-(3-Ethoxyphenyl)ethynyl]benzoyl]piperazin-1-yl]-N-[4-(2-phenylsulfanylethylamino)-3-(trifluoromethyl)phenyl]sulfonylpyridazine-3-carboxamide]			0.0%	
CCOc1cncc(C#Cc2ccccc2C(=O)N2CCN(c3ccc(C(=O)NS(=O)(=O)c4ccc(NCCSc5ccccc5)c(C(F)(F)F)c4)nn3)CC2)c1 [Compound B2R008-01, 6-[4-[2-[2-(5-Ethoxypyridin-3-yl)ethynyl]benzoyl]piperazin-1-yl]-N-[4-(2-phenylsulfanylethylamino)-3-(trifluoromethyl)phenyl]sulfonylpyridazine-3-carboxamide]			0.0%	19.5%
CCOc1cccc(C#Cc2cncc(C(=O)N3CCN(c4ccc(C(=O)NS(=O)(=O)c5ccc(NCCSc6ccccc6)c(C(F)(F)F)c5)nn4)CC3)c2)c1 [Compound B2R009-01, 6-[4-[5-[2-(3-Ethoxyphenyl)ethynyl]pyridine-3-carbonyl]piperazin-1-yl]-N-[4-(2-phenylsulfanylethylamino)-3-(trifluoromethyl)phenyl]sulfonylpyridazine-3-carboxamide]			0.0%	19.5%
CCOc1cncc(C#Cc2cncc(C(=O)N3CCN(c4ccc(C(=O)NS(=O)(=O)c5ccc(NCCSc6ccccc6)c(C(F)(F)F)c5)nn4)CC3)c2)c1 [Compound B2R010-01, 6-[4-[5-[2-(5-Ethoxypyridin-3-yl)ethynyl]pyridine-3-carbonyl]piperazin-1-yl]-N-[4-(2-phenylsulfanylethylamino)-3-(trifluoromethyl)phenyl]sulfonylpyridazine-3-carboxamide]			0.0%	0.0%
CCOc1cccc(-c2ccccc2CCC(=O)N2CCN(c3ccc(C(=O)NS(=O)(=O)c4ccc(NCCSc5ccccc5)c(C(F)(F)F)c4)nn3)CC2)c1 [Compound B2R011-01, 6-[4-[3-[2-(3-Ethoxyphenyl)phenyl]propanoyl]piperazin-1-yl]-N-[4-(2-phenylsulfanylethylamino)-3-(trifluoromethyl)phenyl]sulfonylpyridazine-3-carboxamide]			17.7%	−1.3%
CCOc1cncc(-c2ccccc2CCC(=O)N2CCN(c3ccc(C(=O)NS(=O)(=O)c4ccc(NCCSc5ccccc5)c(C(F)(F)F)c4)nn3)CC2)c1 [Compound B2R012-01, 6-[4-[3-[2-(5-Ethoxypyridin-3-yl)phenyl]propanoyl]piperazin-1-yl]-N-[4-(2-phenylsulfanylethylamino)-3-(trifluoromethyl)phenyl]sulfonylpyridazine-3-carboxamide]			15.8%	13.5%
CCOc1cccc(-c2ccc(C(=O)N3CCN(c4ccc(C(=O)NS(=O)(=O)c5ccc(NCCSc6ccccc6)c(C(F)(F)F)c5)nn4)CC3)c3ccccc23)c1 [Compound B2R013-01, 6-[4-[4-(3-Ethoxyphenyl)naphthalene-1-carbonyl]piperazin-1-yl]-N-[4-(2-phenylsulfanylethylamino)-3-(trifluoromethyl)phenyl]sulfonylpyridazine-3-carboxamide]			7.5%	7.7%
CCOc1cncc(-c2ccc(C(=O)N3CCN(c4ccc(C(=O)NS(=O)(=O)c5ccc(NCCSc6ccccc6)c(C(F)(F)F)c5)nn4)CC3)c3ccccc23)c1 [Compound B2R014-01, 6-[4-[4-(5-Ethoxypyridin-3-yl)naphthalene-1-carbonyl]piperazin-1-yl]-N-[4-(2-phenylsulfanylethylamino)-3-(trifluoromethyl)phenyl]sulfonylpyridazine-3-carboxamide]			18.6%	15.1%
CCOc1cccc(-c2cc(C(=O)N3CCN(c4ccc(C(=O)NS(=O)(=O)c5ccc(NCCSc6ccccc6)c(C(F)(F)F)c5)nn4)CC3)cc(C(C)(C)C)c2)c1 [Compound B2R015-01, 6-[4-[3-tert-Butyl-5-(3-ethoxyphenyl)benzoyl]piperazin-1-yl]-N-[4-(2-phenylsulfanylethylamino)-3-(trifluoromethyl)phenyl]sulfonylpyridazine-3-carboxamide]			9.7%	0.0%
CCOc1cncc(-c2cc(C(=O)N3CCN(c4ccc(C(=O)NS(=O)(=O)c5ccc(NCCSc6ccccc6)c(C(F)(F)F)c5)nn4)CC3)cc(C(C)(C)C)c2)c1 [Compound B2R016-01, 6-[4-[3-tert-Butyl-5-(5-ethoxypyridin-3-yl)benzoyl]piperazin-1-yl]-N-[4-(2-phenylsulfanylethylamino)-3-(trifluoromethyl)phenyl]sulfonylpyridazine-3-carboxamide]			9.1%	2.7%
CCOc1cccc(-c2cc(C(=O)N3CCN(c4ccc(C(=O)NS(=O)(=O)c5ccc(NCCSc6ccccc6)c(C(F)(F)F)c5)nn4)CC3)cc(C(F)(F)F)c2)c1 [Compound B2R017-01, 6-[4-[3-(3-Ethoxyphenyl)-5-(trifluoromethyl)benzoyl]piperazin-1-yl]-N-[4-(2-phenylsulfanylethylamino)-3-(trifluoromethyl)phenyl]sulfonylpyridazine-3-carboxamide]			32.9%	27.2%
CCOc1cncc(-c2cc(C(=O)N3CCN(c4ccc(C(=O)NS(=O)(=O)c5ccc(NCCSc6ccccc6)c(C(F)(F)F)c5)nn4)CC3)cc(C(F)(F)F)c2)c1 [Compound B2R018-01, 6-[4-[3-(5-Ethoxypyridin-3-yl)-5-(trifluoromethyl)benzoyl]piperazin-1-yl]-N-[4-(2-phenylsulfanylethylamino)-3-(trifluoromethyl)phenyl]sulfonylpyridazine-3-carboxamide]			5.1%	7.8%
CCOc1cccc(C#Cc2cc(C(=O)N3CCN(c4ccc(C(=O)NS(=O)(=O)c5ccc(NCCSc6ccccc6)c(C(F)(F)F)c5)nn4)CC3)cc(C(F)(F)F)c2)c1 [Compound B2R019-01, 6-[4-[3-[2-(3-Ethoxyphenyl)ethynyl]-5-(trifluoromethyl)benzoyl]piperazin-1-yl]-N-[4-(2-phenylsulfanylethylamino)-3-(trifluoromethyl)phenyl]sulfonylpyridazine-3-carboxamide]			5.2%	14.0%
